In assay [1] the target is T1, PCSK9 (Homo sapiens, UniProt Q8NBP7). Nature of the assay: Cis-cleavage assay for PCSK9 using immuno-detection (ELISA of remaining FLAG-tag on HisSorb plate). Format: biochemical. More on the design: A DNA fragment corresponding to residues 31-454 of human PCSK9 (Pro-Cat domains) was made synthetically; made in house; host or cells: E. coli (pDest14 vector; expressed as for the first construct, BL-21(DE3)). Conditions: 100 uM, 30° C. for 4 hours. How it is done:
This example describes an assay to monitor the cis-cleavage of human PCSK9 using immuno-detection methods. A construct of human PCSK9 was created to have an N-terminal FLAG-tag and a (His)6-tag on the C-terminus. After incubation, the reaction was quenched and the domains were disassociated with 4.0 M urea. The protein was transferred to and bound, via the His-tag, to a HisSorb plate (Qiagen; Valencia, Calif.; nickel-nitrilotriacetic acid (Ni-NTA) coated plate). The amount of cleavage was determined by measuring the remaining FLAG-tag using standard ELISA techniques. Using this method, the sensitivity of the assay was increased at least 1000-fold over gel-based techniques and the micro-titer format makes the assay compatible with high throughput screening methods.
Cloning and expression. A DNA fragment corresponding to residues 31-454 of human PCSK9 (Pro-Cat domains) was made synthetically (GeneScript Corp., Piscataway, N.J.). Additional bases were included to add a Not1 restriction site and a Shine-Dalgarno initiation sequence to the 5′-end. A GS-(His)6 tag followed by a Asc1 restriction site was added to the 3′-end. A Gateway vector of PCSK9 was produced as FLAG-Pro-Cat(454)-GS-(His)6 by restriction digestion/ligation into the pDest14 expression vector. Expression and purification of the protein was done as previously described with aliquots frozen at −80° C. […]
Background: An ELISA detects its analyte on a solid surface through an enzyme-linked reagent.
Target sequence in this assay (Q8NBP7 31-454): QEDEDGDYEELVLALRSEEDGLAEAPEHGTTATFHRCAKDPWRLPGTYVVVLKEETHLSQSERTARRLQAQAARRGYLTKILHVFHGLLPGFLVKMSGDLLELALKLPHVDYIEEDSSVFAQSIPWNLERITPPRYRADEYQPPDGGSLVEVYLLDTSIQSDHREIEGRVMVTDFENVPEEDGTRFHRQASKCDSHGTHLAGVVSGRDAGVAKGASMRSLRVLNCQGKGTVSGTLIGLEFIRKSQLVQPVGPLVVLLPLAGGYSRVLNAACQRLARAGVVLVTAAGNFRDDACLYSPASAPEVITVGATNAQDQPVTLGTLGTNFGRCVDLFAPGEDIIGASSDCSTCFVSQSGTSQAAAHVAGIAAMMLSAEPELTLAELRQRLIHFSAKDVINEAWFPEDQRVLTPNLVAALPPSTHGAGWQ

Assay [2] concerns the target T1, PCSK9. In words: HPLC / chromatographic analysis of PCSK9 autoproteolysis (cis-cleavage) in the presence of inhibitors. Format: biochemical. Also on record: Pro-Cat-Domain Polypeptide; initiator Met (N); made in house; host or cells: E. coli BL-21(DE3). How it is done: Unprocessed PCSK9 (18 μM for NanoStream experiment, 8 μM for BioRad Experion experiment) was incubated at 25° C. in 25 mM Hepes pH 7.5, 150 mM NaCl, 10% glycerol and 1 mM EDTA (4% DMSO may be added to uninhibited control assays when run in conjunction with assays that include inhibitors dissolved in DMSO). At the designated time points (t=0 minutes, 60 minutes and 240 minutes), aliquots from the 18 μM incubation were quenched by adding guanidine hydrochloride to a concentration of 6M, then the quenched reaction was applied (1 μl) to NanoStream Brio #4207007 (300 Å, C4) chromatography cassette. Following gradient elution, from the cassette, using 0.1% TFA in water (solvent A) and 0.085% TFA in acetonitrile (solvent B), the peaks were quantitated by absorbance at 214 nm.
Furthermore, a chromatographic analysis of PCSK9 autoproteolysis was performed in the presence of various inhibitors. This assay was used to determine the effect of the inhibitors Tris (2-carboxyethyl) phosphine (TCEP; a reducing agent) and tosyl-L-lysine chloromethyl ketone (TLCK) on the PCSK9 autoproteolysis reaction. In these assay, the ProCat peak is uncleaved PCSK9 whereas the Pro- and Cat-peaks indicate generation of the Pro- and Cat-domains, which indicates autoproteolytic cleavage by PCSK9. FIG. 5(a) sets forth the data in the assay wherein the Tris (2-carboxyethyl) phosphine inhibitor was assayed. […] In the control-A experiment, Tris (2-carboxyethyl) phosphine was added at t=zero minutes of a 6 hour incubation. Tris (2-carboxyethyl) phosphine is a disulfide reducing agent that is not oxidized by air.
In the control-B experiment set forth in FIG. 5(a), Tris (2-carboxyethyl) phosphine was added at the end of a 6 hour incubation. The appearance of the Pro- and Cat-domains in the control B assay indicate the occurrence of autoproteolysis.
FIG. 5(b) sets forth data wherein inhibition mediated by TCEP (Tris (2-carboxyethyl) phosphine) and TLCK (tosyl-L-lysine chloromethyl ketone) are compared, side-by-side, in an autoproteolysis assay. […] The inhibitors are added at time zero. TCEP was added at 5 mM to quench the reaction; this sample serves as the 100% inhibited control—Control A in FIG. 5. TLCK was added at a concentration of 77 μM.
An HPLC analysis was performed on unprocessed PCSK9. A sample containing 12 uM unprocessed PCSK9 in 25 mM Hepes buffer pH 7.5, 150 mM NaCl, 1 mM EDTA, 10% glycerol and 4.0% DMSO was incubated at 25° C. […] One microliter of the reaction mixture was analyzed directly by reversed phase-HPLC using Express-LC100, a micro fluidic chromatographic system from Eksigent. […] The flow rate was 12 uI per minute and the sample components were detected at 214 nm. The amount of ProCat polypeptide was calculated as % of sum of peak areas corresponding to Pro-, Cat- and ProCat domains. […]
Target sequence in this assay (Q8NBP7 with tags, fused parts or gaps): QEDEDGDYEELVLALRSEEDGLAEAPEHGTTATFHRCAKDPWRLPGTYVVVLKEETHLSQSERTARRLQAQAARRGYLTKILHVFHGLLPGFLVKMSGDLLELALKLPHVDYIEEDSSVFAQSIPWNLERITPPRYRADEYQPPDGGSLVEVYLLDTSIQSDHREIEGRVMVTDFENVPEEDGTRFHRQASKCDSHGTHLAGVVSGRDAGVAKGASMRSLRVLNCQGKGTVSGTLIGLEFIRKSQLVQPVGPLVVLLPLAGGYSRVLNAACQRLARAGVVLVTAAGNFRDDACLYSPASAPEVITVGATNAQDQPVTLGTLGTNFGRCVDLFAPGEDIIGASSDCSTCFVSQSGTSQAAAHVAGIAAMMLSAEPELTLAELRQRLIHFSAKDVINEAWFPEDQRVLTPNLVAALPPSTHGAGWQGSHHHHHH

[3] abbreviates: 77 μM, added at time zero, FIG. 5(b).

With “tosyl-L-lysine chloromethyl ketone [TLCK]”, in assay [1], the “inhibition of cis-cleavage (negative control)” value worked out at 100%. Further, in assay [2] (77 uM, 6 hour incubation at 25° C., 12 uM unprocessed PCSK9), the “inhibition of cis-cleavage reaction” value was “significant inhibition”. Further, in assay [2] (setting [3]), the “Pro- and Cat-domains in comparison to Control-A (TCEP)” value is “slight increase”; the “ProCat peak (uncleaved PCSK9) in comparison to Control-A (TCEP)” value is listed as “small decrease”.

As to `O=C(O)CCP(CCC(=O)O)CCC(=O)O` [TCEP, Tris (2-carboxyethyl) phosphine], the “inhibition of cis-cleavage activity” value in assay [2] (5 mM, added at t=zero minutes of a 6 hour incubation (control-A), FIG. 5(a)) is listed as “complete inhibition”.

Values taken from patent publication US8206943B1, “Assay for PCSK9 inhibitors” (Schering Corporation, priority 2008, dated 2012).
